“Also recorded” adds a separate entry of the source.
Legend:
[1] = tested on: probiotic Lactobacillus spp; test: Growth of probiotic Lactobacillus strains; settings: three Lactobacillus strains
[2] = type: in vivo, mouse
Description: This novel observation of an anti-inflammatory effect of EBA was corroborated in subsequent collaborative studies. […] These experiments confirm that EBA has an anti-inflammatory effect in two distinct murine models of microbially driven IBD.

[3] = tested on: AIEC and cancer associated E. coli; test: Soft agar motility assay, E. coli; type: cell-based; settings: 10 h, AIEC NC101, 541-1, cancer associated E. coli
Description: (§1) The ability of ABA C1-3 and BA to impact the motility of E. coli and Salmonella was evaluated using sloppy agar treated with and without BA and C1-C3 alkyl boronic acids. Motility is strongly linked to the virulence phenotype of these bacterial strains. E. coli was grown overnight at 37° C. in LB broth. Soft agar plates (1% tryptone, 0.5% NaCl, 0.25% agar) were prepared the day before the assay was carried out. Sterile NaCl (control), boric or boronic acid stock solution was added into the agar right before pouring the plates. The overnight cultures of E. coli were transferred (3 μl) on to the center of each plate, followed by incubation of the plates at 37° C. for 10 h. E. coli motility was quantified by measuring the diameter of the circular swarming area formed by the growing motile bacteria.

[4] = tested on: Gram Positive aerobes and probiotic species (Lactobacillus, Bifidobacteria); test: Bacterial growth panel, impact on non-target species (selectivity); type: cell-based
[5] = tested on: Caco-2 cells
[6] = tested on: AIEC 541-1 and LF82; test: Adhesion and invasion of Caco-2 cells by AIEC; type: cell-based, E. coli; settings: 30 mM, m.o.i 10, 3 h
Description: E. coli was cultured overnight in LB at 37° C. with shaking. Bacterial pellets were re-suspended in PBS before dilution in cell culture media±30 mM boronic acid or alkyl boronic acid to an m.o.i (multiplicity of infection) of 10. Caco-2 cells were infected with the diluted E. coli for 3 h at 37° C. before washing with PBS, then lysed with 1% Triton X-100. Serial dilutions of the lysates were made in PBS and plated on LB agar. The total number of colonies recovered was used to calculate the number of adherent bacteria. For invasion assays, cells were treated with gentamicin (100 μg mL−1) for one hour after initial infection and 3× wash with PBS to kill extracellular bacteria. Cells were then washed 3× after gentamicin treatment, lysed and plated as described above.

[7] = tested on: Salmonella; test: Soft agar motility assay, Salmonella; type: cell-based; settings: % motility of the control
Description: as §1

[8] = tested on: Listeria monocytogenes; test: Bacterial growth panel, Listeria; type: cell-based
Description: (§2) The control sample contained 40 mM NaCl.
Growth of bacteria with or without addition of C2-C8 C10, and C12 alkyl boronic acids, BA, or FMPBA was monitored by readings at OD600. […] The area under the curve (“AUC”) of the growth curve was calculated and the results were expressed as AUC+test compound:AUC−test compound.

[9] = tested on: AIEC E. coli isolated from people (MDR and non-MDR strains); test: Growth of MDR and non-MDR E. coli associated with Crohn's disease; type: cell-based; settings: 40 mM, LB broth, 48 hrs
Description: (§3) The ability of C1-C3 alkyl boronic acids and BA to impact the growth of MDR E. coli isolated from people and dogs was evaluated using a temperature controlled 96-well multiplate incubator at 37° C. over 48 hrs. Growth in media (LB broth) with and without ABA C2-6 (40 mM) was monitored by readings at OD600 with the AUC of the growth curve calculated.

[10] = tested on: Salmonella; test: Adhesion and invasion of colonic epithelial cells by Salmonella; type: cell-based
[11] = tested on: Salmonella; test: Growth of five Salmonella strains; type: cell-based
Description: as §2

[12] = tested on: cancer associated E. coli (HM288); test: Growth in M9 media; settings: EBA 10-40 mM
[13] = tested on: AIEC E. coli from dogs (MDR and non-MDR strains); test: Growth of MDR and non-MDR E. coli associated with Granulomatous colitis in dogs; type: cell-based; settings: 40 mM, LB broth, 48 hrs
Description: as §3
Non-MDR strains KD1, KD2, and KD3 were also evaluated.

CCB(O)O [EBA, ethyl boronic acid]
growth of probiotic Lactobacillus spp [1]: do not suppress growth | intestinal inflammation, fecal lipocalin and histopathology ([2]; SIHUMI colonized 11-10−/− mouse): markedly reduced intestinal inflammation | adverse or pro-inflammatory effects ([2]; mouse, in vivo): no adverse or pro-inflammatory effects | motility of E. coli [3]: highly effective at blocking motility of AIEC and cancer associated E. coli | selectivity against Probiotic spp ([4]; compared with BA): more selective than BA | selectivity versus Gram Positive aerobes ([4]; compared with BA): more selective than BA | selectivity: impact on Gram Positive aerobes and probiotic species ([4]; same concentrations as growth panel): less impact on probiotic Lactobacillus, Bacillus, and Gram Positive aerobes; also recorded: more selective than DoDBA; also recorded: more selective than C3-C7 alkyl boronic acids | degree of cytopathic effect [5]: EBA<BA<PBA | adhesion and invasion of Caco-2 by AIEC [6]: suppress adhesion and invasion of Caco-2 by AIEC 541-1 and LF82 | motility of Salmonella [7]: highly effective at blocking motility of Salmonella | selectivity of activity against Listeria monocytogenes [8]: selectivity apparent | growth inhibition of Crohn's disease associated AIEC, MDR and non-MDR [9]: more effective than BA over a wider range of AIEC, including MDR and non-MDR strains | suppression of adhesion and invasion of Salmonella [10]: 40-50% | inhibition of growth of Salmonella serovars [11]: inhibit the growth of multiple serovars of Salmonella more effectively than BA | inhibition of growth of cancer associated E. coli HM288 [12]: effective | growth inhibition of canine Granulomatous colitis associated AIEC, MDR and non-MDR [13]: more effective than BA over a wider range of AIEC, including MDR and non-MDR strains

— patent publication US12589103B2, “Antimicrobial and antiviral effects of C2-C7 alkyl boronic acids” (CORNELL UNIVERSITY, priority 2019, dated 2026)
